# Reference: PubChem BioAssay AID1963443 (Molecular Pharmacology Branch, DTP, NCI, 2024)
# Tested on: MDA-MB-231 complex spheroids, growth inhibition
# Assay: Anticancer human tumor MDA-MB-231 cell line growth inhibition [Asc];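 note: spheroids exposed to compounds for 7 days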
# Conditions: for IC50: curve of first compound; for viability, T/C: stronger effect = lower value
# Outline: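 Stromal components (HUVEC and hMSC) are co-assembled with the cancer cells into multicellular spheroids. Drugs are then added singly or paired, at concentrations falling by half-log increments from a clinically achievable maximum, capped at 10 microM without known Cmax.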
# [1] = second compound 0.03 µM, first compound 0.0316 µM
# [2] = second compound 0.03 µM, first compound 0.1 µM
# [3] = second compound 0.03 µM, first compound 0.316 µM
# [4] = second compound 0.03 µM, first compound 1 µM
# [5] = second compound 0.0949 µM, first compound 0.0316 µM
# [6] = second compound 0.0949 µM, first compound 0.1 µM
# [7] = second compound 0.0949 µM, first compound 0.316 µM
# [8] = second compound 0.0949 µM, first compound 1 µM
# [9] = second compound 0.3 µM, first compound 0.0316 µM
# [10] = second compound 0.3 µM, first compound 0.1 µM
# [11] = second compound 0.3 µM, first compound 0.316 µM
# [12] = second compound 0.3 µM, first compound 1 µM
# [13] = second compound 0.949 µM, first compound 0.0316 µM
# [14] = second compound 0.949 µM, first compound 0.1 µM
# [15] = second compound 0.949 µM, first compound 0.316 µM
# [16] = second compound 0.949 µM, first compound 1 µM
# [17] = second compound 3 µM, first compound 0.0316 µM
# [18] = second compound 3 µM, first compound 0.1 µM
# [19] = second compound 3 µM, first compound 0.316 µM
# [20] = second compound 3 µM, first compound 1 µM
compound,measurement,setting,value
C=CC(=O)N1CCN(c2nc(=O)n(-c3c(C)ccnc3C(C)C)c3nc(-c4c(O)cccc4F)c(F)cc23)C(C)C1 (stereo not given) + CCN1C(C(=O)NC23CCC(C(=O)O)(CC2)CC3)C(c2cccc(Cl)c2F)C2(C(=O)Nc3cc(Cl)ccc32)C12CCCCC2,IC50,second compound 0.03 µM,> 10000 nM
same,IC50,second compound 0.0949 µM,> 10000 nM
same,IC50,second compound 0.3 µM,> 10000 nM
same,IC50,second compound 0.949 µM,> 10000 nM
same,IC50,second compound 3 µM,> 10000 nM
same,"viability, T/C",[1],97.4%
same,"viability, T/C",[2],97.9%
same,"viability, T/C",[3],103%
same,"viability, T/C",[4],104%
same,"viability, T/C","second compound 0.03 µM, first compound 3.16 µM",102%
same,"viability, T/C","second compound 0.03 µM, first compound 10 µM",106%
same,"viability, T/C",[5],108%
same,"viability, T/C",[6],107%
same,"viability, T/C",[7],112%
same,"viability, T/C",[8],109%
same,"viability, T/C","second compound 0.0949 µM, first compound 3.16 µM",116%
same,"viability, T/C","second compound 0.0949 µM, first compound 10 µM",120%
same,"viability, T/C",[9],101%
same,"viability, T/C",[10],103%
same,"viability, T/C",[11],110%
same,"viability, T/C",[12],118%
same,"viability, T/C","second compound 0.3 µM, first compound 3.16 µM",121%
same,"viability, T/C","second compound 0.3 µM, first compound 10 µM",108%
same,"viability, T/C",[13],113%
same,"viability, T/C",[14],113%
same,"viability, T/C",[15],120%
same,"viability, T/C",[16],118%
same,"viability, T/C","second compound 0.949 µM, first compound 3.16 µM",129%
same,"viability, T/C","second compound 0.949 µM, first compound 10 µM",121%
same,"viability, T/C",[17],96%
same,"viability, T/C",[18],107%
same,"viability, T/C",[19],109%
same,"viability, T/C",[20],114%
same,"viability, T/C","second compound 3 µM, first compound 3.16 µM",115%
same,"viability, T/C","second compound 3 µM, first compound 10 µM",112%
CNC(C)C(=O)NC1CN(S(=O)(=O)c2cccc(S(=O)(=O)N3CCC4CCC(C(=O)NC(c5ccccc5)c5ccccc5)N4C(=O)C(NC(=O)C(C)NC)C3)c2)CCC2CCC(C(=O)NC(c3ccccc3)c3ccccc3)N2C1=O (stereo not given) + CCN1C(C(=O)NC23CCC(C(=O)O)(CC2)CC3)C(c2cccc(Cl)c2F)C2(C(=O)Nc3cc(Cl)ccc32)C12CCCCC2,IC50,second compound 0.03 µM,< 3.16 nM
same,IC50,second compound 0.0949 µM,< 3.16 nM
same,IC50,second compound 0.3 µM,< 3.16 nM
same,IC50,second compound 0.949 µM,< 3.16 nM
same,IC50,second compound 3 µM,< 3.16 nM
same,"viability, T/C","second compound 0.03 µM, first compound 0.00316 µM",6.71%
same,"viability, T/C","second compound 0.03 µM, first compound 0.01 µM",1.67%
same,"viability, T/C",[1],1.57%
same,"viability, T/C",[2],1.22%
same,"viability, T/C",[3],1.14%
same,"viability, T/C",[4],0.97%
same,"viability, T/C","second compound 0.0949 µM, first compound 0.00316 µM",5.03%
same,"viability, T/C","second compound 0.0949 µM, first compound 0.01 µM",1.98%
same,"viability, T/C",[5],1.66%
same,"viability, T/C",[6],1.78%
same,"viability, T/C",[7],1.27%
same,"viability, T/C",[8],0.74%
same,"viability, T/C","second compound 0.3 µM, first compound 0.00316 µM",5.55%
same,"viability, T/C","second compound 0.3 µM, first compound 0.01 µM",3.61%
same,"viability, T/C",[9],2.08%
same,"viability, T/C",[10],2.17%
same,"viability, T/C",[11],0.84%
same,"viability, T/C",[12],1.46%
same,"viability, T/C","second compound 0.949 µM, first compound 0.00316 µM",3.82%
same,"viability, T/C","second compound 0.949 µM, first compound 0.01 µM",2.39%
same,"viability, T/C",[13],2.37%
same,"viability, T/C",[14],0.77%
same,"viability, T/C",[15],0.84%
same,"viability, T/C",[16],0.96%
same,"viability, T/C","second compound 3 µM, first compound 0.00316 µM",2.23%
same,"viability, T/C","second compound 3 µM, first compound 0.01 µM",1%
same,"viability, T/C",[17],1.14%
same,"viability, T/C",[18],0.61%
same,"viability, T/C",[19],0.68%
same,"viability, T/C",[20],0.75%
O=C(c1ccc(F)c(F)c1Nc1ccc(I)cc1F)N1CC(O)([C@@H]2CCCCN2)C1 + Cc1c(S(C)(=O)=O)c(-c2cc(F)cc(N3CCN(c4ccc(NS(=O)(=O)c5ccc(NC(CCN6CCC(C(=O)OCCCP(=O)(O)O)CC6)CSc6ccccc6)c(S(=O)(=O)C(F)(F)F)c5)cc4)CC3)c2)c(-c2ccc(Cl)cc2)n1C(C)C,IC50,second compound 0.1 µM,76.3 nM
same,IC50,second compound 0.316 µM,103 nM
same,IC50,second compound 1 µM,71.3 nM
same,IC50,second compound 3.16 µM,117 nM
same,IC50,second compound 10 µM,116 nM
same,"viability, T/C","second compound 0.1 µM, first compound 0.00316 µM",87.8%
same,"viability, T/C","second compound 0.1 µM, first compound 0.01 µM",68.8%
same,"viability, T/C","second compound 0.1 µM, first compound 0.0316 µM",60.6%
same,"viability, T/C","second compound 0.1 µM, first compound 0.1 µM",51.9%
same,"viability, T/C","second compound 0.1 µM, first compound 0.316 µM",24.9%
same,"viability, T/C","second compound 0.1 µM, first compound 1 µM",1.38%
same,"viability, T/C","second compound 0.316 µM, first compound 0.00316 µM",86.3%
same,"viability, T/C","second compound 0.316 µM, first compound 0.01 µM",61.9%
same,"viability, T/C","second compound 0.316 µM, first compound 0.0316 µM",64.7%
same,"viability, T/C","second compound 0.316 µM, first compound 0.1 µM",54.8%
same,"viability, T/C","second compound 0.316 µM, first compound 0.316 µM",14.6%
same,"viability, T/C","second compound 0.316 µM, first compound 1 µM",0.96%
same,"viability, T/C","second compound 1 µM, first compound 0.00316 µM",96.5%
same,"viability, T/C","second compound 1 µM, first compound 0.01 µM",59.5%
same,"viability, T/C","second compound 1 µM, first compound 0.0316 µM",66.7%
same,"viability, T/C","second compound 1 µM, first compound 0.1 µM",60.3%
same,"viability, T/C","second compound 1 µM, first compound 0.316 µM",10.8%
same,"viability, T/C","second compound 1 µM, first compound 1 µM",1.16%
same,"viability, T/C","second compound 3.16 µM, first compound 0.00316 µM",81.9%
same,"viability, T/C","second compound 3.16 µM, first compound 0.01 µM",56.5%
same,"viability, T/C","second compound 3.16 µM, first compound 0.0316 µM",60.4%
same,"viability, T/C","second compound 3.16 µM, first compound 0.1 µM",57.2%
same,"viability, T/C","second compound 3.16 µM, first compound 0.316 µM",5.78%
same,"viability, T/C","second compound 3.16 µM, first compound 1 µM",0.65%
same,"viability, T/C","second compound 10 µM, first compound 0.00316 µM",93.9%
same,"viability, T/C","second compound 10 µM, first compound 0.01 µM",93.1%
same,"viability, T/C","second compound 10 µM, first compound 0.0316 µM",89%
same,"viability, T/C","second compound 10 µM, first compound 0.1 µM",57.1%
same,"viability, T/C","second compound 10 µM, first compound 0.316 µM",0.97%
same,"viability, T/C","second compound 10 µM, first compound 1 µM",0.83%
